Assay results reported in patent US9610277B2, “Formula comprising a hypolipidemic agent” (Cadila Healthcare Limited, priority 2013, dated 2017).
“Also recorded” adds a separate entry of the source.

Columns and labels:
Type in all cases: physicochemical
[1] = Stability of API at 40° C./75% RH (percent purity)
Text: (§1) Therefore the inventors of the present invention have tried to develop a stable formulation of API such that the API is protected and cannot absorb moisture.

[2] = Moisture absorption of API at 40° C./75% RH (water by KF)
Text: as §1

[3] = Sulfoxide impurity level over six months
Text: Further, one of the impurity (sulfoxide) which was being generated in API increases from 0.17% to 0.76% over a period of 6 months. […] Therefore stabilization of compositions containing compounds of formula (I) can be made by maintaining the microenvironmental pH of composition above 7 by using suitable alkalinizers. Use of a suitable antioxidant(s) and chelating agent(s) further stabilizes the formulation.

[4] = pH degradation of API in standard pH buffers (sulfoxide impurity at 0.3 RRT); conditions: different standard pH buffers, after 24 hours
Procedure: FIG. 1: Percentage of sulfoxide impurity level (0.3 RRT) at different pH after 24 hours.
When the pH was modulated by addition of alkalinizer(s) then sulfoxide impurity level in API is restricted.
About 1% w/v aqueous dispersion of tablets was used for pH measurement. pH degradation can be seen with API when kept in different standard pH buffers.

- Percent Purity ([1]; 1 Month): 98.10%
- Percent Purity ([1]; 2 Month): 97.93%
- Percent Purity ([1]; 3 Month): 97.17%
- Percent Purity ([1]; Initial): 98.48%
- Water By KF ([2]; 1 Month): 1.17%
- Water By KF ([2]; 2 Month): 2.32%
- Water By KF ([2]; 3 Month): 2.57%
- Water By KF ([2]; Initial): 0.62%
- sulfoxide impurity level ([3]; after 6 months): 0.76%
- sulfoxide impurity level ([3]; start of the six month period): 0.17%
SMILES: CCO[C@@H](Cc1ccc(OCCn2c(C)ccc2-c2ccc(SC)cc2)cc1)C(=O)O [API, Saroglitazar Magnesium]
- Percentage individual impurity at 0.3 RRT (Sulphoxide impurity) [4]: restricted; also recorded: decreases as the solution of pH increases above pH 7
